Experimental data: patent US11680298B2, “Method of identifying risk of cancer and therapeutic options” (Agency for Science, Technology and Research, priority 2016, dated 2023)
Entries after “also recorded” stand apart in the source; their conditions may differ.

Columns and labels:
[1] = Tolerability during treatment in the PDX mouse model; conditions: in vivo
Protocol: Surgical procedures and experiments were conducted in compliance with animal protocols approved by the A*STAR-Biopolis Institutional Animal Care and Use Committee of Singapore (IACUC). 6-8 wk old female NOD/MrkBomTac-Prkdcscid mice were purchased from InVivos (Singapore). For PDX orthotopic xenotransplantation, tissue suspension was first prepared from whole tumour explant from mammary fat pad of immunodeficient mice. Whole tumours were washed in PBS, minced with sterile scalpel and triturated until cells could pass through needle bore. The PDX cell suspension was resuspended in reduced Matrigel (BD Bioscience, Cat No: 356230), and then 10 μl was injected into the mammary fat pad. Autoclips was used for primary wound closure. Mice were observed post-procedure for 1-2 hr, and their body weights and wound healing were monitored weekly. Tumours were measured by vernier caliper twice weekly and the tumour volume was calculated with the following formula: V=W×W×L/2.
For in vivo PDX model, each mouse bore one PDX tumour on one side of the mammary fat pad. After the tumours reach 100 mm^3, the mice were randomized into two groups: Vehicle treated control tumour (n=4) and paclitaxel treated tumour ([…]). […] Following the drug treatments, the tumours were monitored for approximately one month. […]

S100A7/8/9 = experiment: Real time RT-PCR of S100A7/8/9 expression in HCC70 xenograft; format: in vivo, NOD-SCID mice; conditions: HCC70 xenograft (n=4) treated with pacritinib
Protocol: (§1) Mice were then dosed daily by oral gavage for 21 days. Tumour growth was monitored for 1 month.
Total RNA was isolated using TRIzol® reagent (Life Technologies, Carlsbad, Calif.; 15596026) and purified with Direct-zol™ RNA MiniPrep (Zymo Research, Irvine, Calif.; R2050). Reverse transcription and quantitative PCR assays were performed using High-Capacity cDNA Reverse Transcription Kit (Applied Biosystems, Carlsbad, Calif.; 4368813) and KAPA SyBr Fast qPCR kit (KAPA Biosystems, Wilmington, Mass.; KK4601). For quantification of mRNA levels, GAPDH level was used as an internal control. All reactions were analysed in an Applied Biosystems PRISM 7500 Fast Real-Time PCR system in 96-well plate format. For RNA extraction of xenograft tumours, snap frozen samples were resuspended in TRIzol® reagent and homogenized with QIAGEN TissueLyzer II as described by the manufacturer, followed by purification with Direct-zolI™ RNA MiniPrep.

IRAK1 [2] = molecular target: T1, IRAK1 (Homo sapiens, UniProt P51617); experiment: Western blot of phospho-IRAK1 in breast cancer cells and patient-derived tumourspheres; format: cell-based; parameters: endogenous in cells; host or cells: MB468 and MB231 cells; PDX-derived tumourspheres
Protocol: Recombinant IL-1p (Cat no: 200-01B) was purchased from Peprotech (Rocky Hill, N.J.). Recombinant S100A7 (Cat no: pro-149), S100A8 (Cat no: pro-800) and S100A9 (Cat no: pro-814), were purchased from ProSpec (East Brunswick, N.J.). Cells were treated with recombinant proteins at stated concentration for 20 min before harvesting for western blot. Paclitaxel (Cat no: P-9600) was purchased from LC Lab (Woburn, Mass.).
(§2) All immunoblots shown in this specification represent at least two independent experiments. In brief, cells were washed with PBS and lysed in RIPA buffer supplemented with protease and phosphatase inhibitors and further sonicated using an XL2000 Microson Ultrasonice Processor (Misonix). Equal amounts of protein extract were separated on SDS-polyacrylamided gels and transferred to PVDF membranes. Membranes were further blocked with 5% milk or BSA, and then probed with the following antibodies: anti-IRAK1 was purchased from Santa Cruz Biotechnology (Santa Cruz, Calif.; sc-7883), anti-phospho-IRAK1 (T209) was purchased from Assay Biotech (Sunnyvale, Calif.; A1074), anti-JAK2 (Danvers, Mass.; #3230) and anti-phospho-JAK2 ([…]) (Danvers, Mass.: #3774) were purchased from Cell Signaling Technology, anti-actin was purchased from Sigma Aldrich CA; A5441). For protein extraction of xenograft tumours, snap frozen samples were resuspended in RIPA buffer supplemented with protease and phosphatase inhibitors and homogenized with QIAGEN TissueLyzer II as described by the manufacturer, followed by immunoblotting as described above.

[3] = tested on: PDX-derived tumourspheres; experiment: Mammosphere (tumoursphere) formation assay, PDX-derived tumourspheres; format: cell-based, human; conditions: four different PDX-derived tumourspheres
Protocol: (§3) Mammosphere Formation Assay PDX-derived tumoursphere cells were trypsinized and passed through 40 μm cell strainer to achieve single cell suspensions. 3×10^4 cells were seeded in 6-well ultra-low attachment plates (Corning, N.Y.; CLS3471) in serum-free DMEM/F12 supplemented with N2 and B27 (Gibco, Grand Island, N.Y.), 20 ng/ml epidermal growth factor (MACS, Auburn, Calif.), 20 ng/ml basic fibroblast growth factor (MACS, Auburn, Calif.), 0.2 μM Thiazovivin ([…] Technologies, Vancouver, BC) and penicillin/streptomycin (Gibco, Carlsbad, Calif.). For breast cancer cell lines and MCF10A cell line, 3×10^4 cells were seeded in 6-well ultra-low attachment plates in Mammocult medium (Stem Cell Technologies, Vancouver, BC, Canada), supplemented with fresh hydrocortisone (0.5 μg/ml) and heparin (1:500). Mammospheres were maintained at 37° C. with 5% CO2 and topped up with medium every 3 days. After 7-9 days, mammospheres were stained with INT (2-(4-iodophenyl)-3-(4-nitrophenyl)-5-phenyl-2H-tetrazolium chloride, Sigma-Aldrich) and quantified. Imaging and quantification were done using GelCount apparatus and associated software (Oxford Optronix, Abingdon, UK). […] Cell Proliferation Assay

HCC1937 = experiment: Tumoursphere growth, HCC1937; format: cell-based; conditions: HCC1937, negative for 1q21.3 amplification, high phospho-IRAK1 and phospho-JAK2
Protocol: For this purpose, the 1q21.3 gene amplification in a series of breast cancer cell lines was profiled using ddPCR (FIG. 6A). Of note, 1q21.3 status in these cell lines was in general correlated with phospho-IRAK1 and expression of S100A8/9 (FIG. 6B and FIG. 14A), but not with phospho-JAK2 status (FIG. 6B).
Mammosphere Formation Assay PDX-derived tumoursphere cells were trypsinized and passed through 40 μm cell strainer to achieve single cell suspensions. 3×10^4 cells were seeded in 6-well ultra-low attachment plates (Corning, N.Y.; CLS3471) in serum-free DMEM/F12 supplemented with N2 and B27 (Gibco, Grand Island, N.Y.), 20 ng/ml epidermal growth factor (MACS, Auburn, Calif.), 20 ng/ml basic fibroblast growth factor (MACS, Auburn, Calif.), 0.2 μM Thiazovivin ([…] Technologies, Vancouver, BC) and penicillin/streptomycin (Gibco, Carlsbad, Calif.). For breast cancer cell lines and MCF10A cell line, 3×10^4 cells were seeded in 6-well ultra-low attachment plates in Mammocult medium (Stem Cell Technologies, Vancouver, BC, Canada), supplemented with fresh hydrocortisone (0.5 μg/ml) and heparin (1:500). […] After 7-9 days, mammospheres were stained with INT (2-(4-iodophenyl)-3-(4-nitrophenyl)-5-phenyl-2H-tetrazolium chloride, Sigma-Aldrich) and quantified. Imaging and quantification were done using GelCount apparatus and associated software (Oxford Optronix, Abingdon, UK). […]

IRAK1 [4] = molecular target: T1, IRAK1; experiment: Western blot of phospho-IRAK1 in HCC70 xenograft; format: in vivo, NOD-SCID mice; parameters: For protein extraction of xenograft tumours, snap frozen samples were resuspended in RIPA buffer; from tissue; host or cells: HCC70 xenograft tumour from NOD-SCID mice; conditions: HCC70 xenograft (n=4) treated with pacritinib
Protocol: as §1, §2

MB468 tumourspheres = experiment: Mammosphere (tumoursphere) formation assay, MB468; format: cell-based; conditions: MB468 cell line
Protocol: as §3

T1 sequence (P51617 whole entry): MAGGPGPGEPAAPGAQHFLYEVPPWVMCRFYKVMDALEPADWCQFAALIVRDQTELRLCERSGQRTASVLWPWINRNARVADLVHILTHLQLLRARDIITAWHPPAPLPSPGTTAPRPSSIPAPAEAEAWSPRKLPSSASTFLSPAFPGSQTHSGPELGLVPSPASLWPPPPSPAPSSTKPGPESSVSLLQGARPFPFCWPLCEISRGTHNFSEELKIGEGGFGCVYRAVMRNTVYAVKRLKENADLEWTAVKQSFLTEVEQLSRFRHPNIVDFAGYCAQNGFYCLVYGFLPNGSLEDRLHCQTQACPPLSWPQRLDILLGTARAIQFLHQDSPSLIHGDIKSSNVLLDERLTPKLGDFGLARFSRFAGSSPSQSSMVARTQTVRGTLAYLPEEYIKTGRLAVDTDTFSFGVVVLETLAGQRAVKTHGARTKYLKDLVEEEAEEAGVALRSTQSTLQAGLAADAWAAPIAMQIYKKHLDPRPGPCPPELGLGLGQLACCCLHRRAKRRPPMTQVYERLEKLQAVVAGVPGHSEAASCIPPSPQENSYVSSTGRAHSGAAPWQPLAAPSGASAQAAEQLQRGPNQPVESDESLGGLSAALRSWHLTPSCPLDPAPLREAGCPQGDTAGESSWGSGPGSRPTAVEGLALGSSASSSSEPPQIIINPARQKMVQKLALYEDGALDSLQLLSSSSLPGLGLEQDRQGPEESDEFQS

C1=C/COCc2cc(ccc2OCCN2CCCC2)Nc2nccc(n2)-c2cccc(c2)COC/1 [pacritinib]
tolerability [1]: tolerated very well | toxicity and body weight loss [1]: no obvious toxicity and body weight loss | S100A7/8/9 expression in xenograft (S100A7/8/9): downregulation | phosphorylation of IRAK1 (IRAK1 [2]; MB468 cells, 6 hr pacritinib treatment, western blot): inhibition of phospho-IRAK1 and phospho-JAK2 within 6 hr; also recorded: effectively block the phosphorylation of both IRAK1 and JAK2 as early as 6 hours in a dose-dependent manner | phospho-IRAK1 (IRAK1 [2]; patient-derived (PDX-derived) tumoursphere cells, 24 hr, pacritinib 2.5 μM, with and without IL-1): prolonged inhibition of phospho-IRAK1; also recorded: sustained inhibition of phospho-IRAK1 | tumoursphere growth [3]: strong tumoursphere growth inhibition | sensitivity to pacritinib (HCC1937): sensitive to pacritinib treatment | phospho-IRAK1 level in xenograft (IRAK1 [4]): downregulation of phospho-IRAK1 | number of tumourspheres (MB468 tumourspheres): strong tumoursphere inhibitory effect
